Consider 8 molecules from PMC10811918, “Mechanisms of Bushen Tiaoxue Granules against controlled ovarian hyperstimulation-induced abnormal morphology of endometrium based on network pharmacology” (Journal of Ovarian Research, 2024).

In series [1] the test system is Human endometrial stromal cells (hESC). Briefly: Cytotoxicity on hESC (CCK8 cell viability). In kind it is cell-based. The settings on record: for IC50: read-out: IC50 (inhibition of hESC proliferation). On the procedure:
Human endometrial stromal cells (hESC) were obtained from the Meisen Chinese Tissue Culture Collections (Zhejiang, China). The basal culture medium for hESC comprised DMEM/F12 supplemented with 10% fetal bovine serum (FBS) and 1% penicillin–streptomycin. The culture environment was maintained at 5% CO2 and 37 °C. […] Six gradients of concentrations were established to determine the IC50 of these compounds.
(§1) D-Galactose (D-Gal) was procured from Solabio Company (Beijing, China) and prepared in DMEM/F12 at a concentration of 200 mM as the modeling drug. hESC were uniformly seeded at 4 × 10^3 cells/well in a 96-well plate with 6 replicates per group, while wells treated only with basal culture medium served as the control group. Following cell adhesion, a 24-h intervention with 200 mM D-Gal was administered, followed by a 24-h culture with the appropriate concentration of natural product selected from the screening. CCK8 solution (Solabio, Beijing, China) was added to the wells and incubated in the culture chamber for 2 h, and absorbance was recorded at 450 nm using a microplate reader (Bio-Rad, USA).
All data in this study were analyzed by SPSS 22.0 software, and the results were presented as mean ± SEM. The one-way ANOVA, followed with Turkey’s test was performed for multiple comparison. p value < 0.05 was considered statistically significant. GraphPad Prism is utilized for calculating IC50 values and organizing graphs.
Previous studies have identified an increased senescent phenotype in endometrial stromal cells post COH, which is unfavorable for decidualization during embryo implantation. D-Gal is a widely recognized mimetic agent causing oxidative stress damage and promoting aging.

Series [2] deals with hESC with D-Gal-induced damage. Nature of the series: Protection against D-Gal-induced damage in hESC (CCK-8). It is filed as cell-based, Human. Particulars: 200 mM D-Gal 24 h, then compound 24 h at two concentrations: quercetin 50/25 μM, taxifolin 260/130 μM, kaempferol 400/200 μM, eriodictyol 230/115 μM, isorhamnetin 500/250 μM. On the procedure:
as §1
Cell viability was assessed using CCK-8 assay (Fig. 10A).

The conditions of series [3]: cited from earlier work.
The nature of series [4]: Blood drug concentration of kaempferol following BTG administration. It is filed as in vivo, rat. Particulars: rats, BTG 3.27 g/kg oral gavage for 3 days, sampling 10 min to 12 h. An excerpt: Supplementary file 13048_2023_1339_MOESM1_ESM.pdf: Additional file 1: Table S1. Composition of the BTG. Table S2. Identification of chemical components in BTG. Table S3. Affinity of ingredients with potential targets. Figure S1. […] Upon usage, it was sequentially diluted to obtain concentration gradient solutions. Utilizing the same 50 female SD rats as employed in the in vivo experiment, two rats constituted the blank control group, while the remaining 48 rats were divided into treatment groups, each consisting of 6 rats. […] The blood samples were centrifuged at 4°C, 3500 rpm for 10 min, and the supernatant was analyzed. Following the UPLC-MS analysis method described earlier, the peak areas of the analyte and internal standard were recorded to calculate the blood drug concentrations at each time point. […] The serum levels of (A) ALT, (B) AST, (C) CREA, (D) UA, and (E) UREA in each group of rats were measured using microplate assays. […]
stock solution of 200 μg/mL for the mixed control solution. […] The blood samples were centrifuged at 4°C, 3500 rpm for 10 min, and the supernatant was analyzed. Following the UPLC-MS analysis method described earlier, the peak areas of the analyte and internal standard were recorded to calculate the blood drug concentrations at each time point. […]

For series [5], the system named is mouse embryos. Set-up: method as in PMID 25896022. The settings on record: cited from earlier work.
For series [6], the system named is mice. The settings on record: dose higher than 800 μg; cited from earlier work.
The mark [7] stands for this setting: hESC, six concentration gradients.

Where two headings read alike, the source gives them in different places.

Take `O=C1c2c(O)cc(O)cc2OC(c2ccc(O)c(O)c2)C1O` (stereo not shown) [taxifolin]: the IC50 in series [1] (setting [7]) worked out at 263 µM. The “improvement of cellular viability damage caused by D-Gal” value (“improvement” below) in series [2] is given as “effective improvement”.

Consider `COc1cc(-c2oc3cc(O)cc(O)c3c(=O)c2O)ccc1O` [isorhamnetin], for which the IC50 in series [1] (setting [7]) is over 500 µM. The “improvement” value in series [2] is listed as “failed to effectively ameliorate”.

For the molecule `O=c1c(O)c(-c2ccc(O)c(O)c2)oc2cc(O)cc(O)c12` [quercetin], the IC50 in series [1] stood at 45.4 µM. The “improvement” value in series [2] was “failed to effectively ameliorate”. Besides, the oral bioavailability in series [3] is 46.43%.

Consider `O=C[C@H](O)[C@@H](O)[C@@H](O)[C@H](O)CO` [D-Gal, D-Galactose, reference compound], for which the inhibition at 200000 µM in series [1] (hESCs, 200 mM, read-out: inhibition of cell proliferation) is about 50%.

As for `O=c1c(O)c(-c2ccc(O)cc2)oc2cc(O)cc(O)c12` [kaempferol], in series [1], the IC50 worked out at 399 µM. The “improvement” value in series [2] was “effective improvement”. Also, the “kaempferol concentration in the blood following BTG administration” value in series [4] is listed as “sustained detectable concentrations even at 8 h”. Further, in series [3], the oral bioavailability is given as 41.88%.

Consider `O=C1C[C@@H](c2ccc(O)c(O)c2)Oc2cc(O)cc(O)c21` [eriodictyol], for which the IC50 in series [1] (setting [7]) came out at 233 µM. In addition, in series [2], the “improvement” value is listed as “effective improvement”.

For the molecule `O=C(O)[C@H]1O[C@@H](Oc2cc3oc(-c4ccccc4)cc(=O)c3c(O)c2O)[C@H](O)[C@@H](O)[C@@H]1O` [baicalin], the “adhesion rate and implantation rate of mouse embryos” value in series [5] was “increase”.

For `CS(=O)(=O)Nc1ccc([N+](=O)[O-])cc1Oc1ccccc1` [nimesulide], the implantation sites entry in series [6] is listed as “reduced”.
